Like-named read-outs stand apart in the source and are kept apart here.
Legend:
Aedes albopictus [1] = assay: Protection time at 0.17 mg/cm2, human-bait technique; type: in vivo; settings: for pest or weed control at 0.17 mg/cm2, 0.17 mg/cm2: Aedes albopictus, topical, read-out: Protection time PE%
Method: To evaluate the protection time of derivatives, the PE % was measured with 100 μL of a 5% ethanol solution, corresponding to 0.17 mg/cm^2 of exposed skin, under the same laboratory conditions. Mosquito-exposed skin was treated with 100 μL of ethanol, as the negative hand control. For each volunteer (up to 8), the test was performed every hour, up to 8 h from the application. The protection time of DEET and Icaridin was measured under the same conditions. Since these trials were run in parallel with those aimed to profile the cytotoxicity of the compounds (paragraph 2.6), we interrupted the experiments for those compounds showing to have higher cytotoxicity than Icaridin and DEET as soon as the results were available. For this reason, the number of volunteers differs among the compounds.
The average time until protection which was higher than 95% protection time was considered for each compound. Moreover, for the compounds tested on at least three volunteers, the complete (100%) protection time was also estimated (SPSS 28.01.0) using the Kaplan–Meier survivor function procedure.[22]

HaCaT cells = assay: Cytotoxicity on human keratinocytes (MTS); type: cell-based; settings: 82 μg/mL, 24 h
Method: HaCaT cells were cultured in 5% CO2 at 37 °C in Dulbecco’s modified Eagle’s medium (DMEM), supplemented with 10% fetal bovine serum (FBS), 1% L-glutamine ([…]), and 1% penicillin–streptomycin (Thermo Fisher Scientific, Rodano, Milan, Italy). […] Experiments were performed in triplicate.

Aedes albopictus [2] = assay: Effective dose / protection efficacy, human-bait technique; type: in vivo; settings: for pest or weed control at 0.081 µg/cm2, 0.081 µg/cm2 / pest or weed control at 0.17 µg/cm2, 0.17 µg/cm2 / pest or weed control at 0.33 µg/cm2, 0.33 µg/cm2 / pest or weed control at 0.5 µg/cm2, 0.5 µg/cm2 / pest or weed control at 0.83 µg/cm2, 0.83 µg/cm2 / pest or weed control at 1.7 µg/cm2, 1.7 µg/cm2 / pest or weed control at 8.3 µg/cm2, 8.3 µg/cm2 / pest or weed control at 16.7 µg/cm2, 16.7 µg/cm2 / pest or weed control at 83.3 µg/cm2, 83.3 µg/cm2: Aedes albopictus, topical, read-out: Protection efficacy PE%; for 100% PE: Table S1
Method: The repellence of DEET, Icaridin (both supplied by Istituto Biochimico VEBI s.r.l.), acetals, and the synthesized hydroxyacetals was evaluated againstAedes albopictususing the human-bait technique (to simulate the condition of human skin on which repellents will be applied).[22]A. albopictuswas reared and tested at 26 ± 2 °C, ≥60 ± 10% relative humidity (RH), and at 14:10 h light/dark photoperiod, within Plexiglas cylindrical laboratory cages (35 cm diameter, 60 cm length) with one end closed by a net. During the tests, cages contained ≈150 nulliparous, 4–7 day-old, nonblood-fed females. For each compound to be tested, up to six volunteers participated in the trial.
The study was approved by the Regional Ethics Committee for Clinical Trials of Tuscany Region with the registered number 20383. Volunteers agreed to take part in the experiments following informed consent; only volunteers non-allergic to mosquito bites participated in the trials. On the day of the bioassay, they had no contact with lotions, perfumes, oils, or perfumed soaps. They wore latex surgical gloves, in which a dorsal square area of 30 cm^2 was cut open. Mosquito-exposed skin was treated with 50 μL of ethanol, as the negative hand control. The other hand was treated with 50 μL of the tested compounds in ethanol solution (dosages corresponding to 0.081, 0.17, 0.33, 0.5, 0.83, 1.7, 8.3, 16.7, and 83.3 μg/cm^2). Both hands were presented in the same test cage. The number of probing mosquitoes in a 3 min exposure period was recorded. During each test, the control and the treated hand were presented interchanged to verify the mosquitoes’ readiness to bite. Trials were considered valid only if at least 30 mosquitoes performed probing behavior on the control hand before each repellent dosage was tested. The protection efficacy (PE %) obtained from all replicates was calculated, according to the WHO guidelines[31] using this formula [drawing 1]
To evaluate the protection efficacy, volunteers applied increasing doses of the compounds to the skin on the back of their hands (30 cm^2, while the rest was covered with a rubber glove) and counted the number of mosquitoes attempting to bite; the solvent only was used on the control hand. The protection (percentage of repelled mosquitoes) was calculated as reported in the Material and Methods section.

RAW 264.7 = assay: Immunogenicity on murine macrophages (nitric oxide release); type: cell-based
Method: Cells were cultured in DMEM, with 10% FBS, 1% L-glutamine (2 mM), and 1% penicillin–streptomycin 100 U/mL at 37 °C in an atmosphere containing 5% CO2. RAW264.7 were seeded (1 × 10^5 cells/well) and exposed to five derivatives or Icaridin, at 82 μg/mL or to LPS (1 μg/mL) as a positive control, for 3 and 6 h. After that, nitric oxide release was determined in the culture media as previously described.[32] Experiments were performed in triplicate.

## CCCCC1(CCCC)OCC(CC)(CO)CO1 [16c]
Aedes albopictus [1]; 0.17mg/cm2, 1 h
  pest or weed control at 0.17 mg/cm2, 0.17 mg/cm2: 99%
Aedes albopictus [1]; 0.17mg/cm2, 2 h
  pest or weed control at 0.17 mg/cm2, 0.17 mg/cm2: 96.3%
Aedes albopictus [1]; 0.17mg/cm2, 3 h
  pest or weed control at 0.17 mg/cm2, 0.17 mg/cm2: 97.6%
Aedes albopictus [1]; 0.17mg/cm2, 4 h
  pest or weed control at 0.17 mg/cm2, 0.17 mg/cm2: 97.1%
Aedes albopictus [1]; 0.17mg/cm2, 5 h
  pest or weed control at 0.17 mg/cm2, 0.17 mg/cm2: 94.8%
Aedes albopictus [1]; 0.17mg/cm2, 6 h
  pest or weed control at 0.17 mg/cm2, 0.17 mg/cm2: 95.4%
Aedes albopictus [1]; 0.17mg/cm2, 7 h
  pest or weed control at 0.17 mg/cm2, 0.17 mg/cm2: 95.1%
Aedes albopictus [1]; 0.17mg/cm2, 8 h
  pest or weed control at 0.17 mg/cm2, 0.17 mg/cm2: 99%
Aedes albopictus [1]; at the dose of 0.17mg/cm2
  Average PT >95% (% coefficient of variation): 480 (1.4) min
Aedes albopictus [1]; dose of 0.17 mg/cm^2, tests ended after 8 h
  Protection time (95% protection): 8 h
HaCaT cells
  survival of keratocytes: > 88%
Aedes albopictus [2]; 0.081 µg/cm2
  pest or weed control at 0.081 µg/cm2, 0.081 µg/cm2: 6.06%
Aedes albopictus [2]; 0.17 µg/cm2
  pest or weed control at 0.17 µg/cm2, 0.17 µg/cm2: 59.5%
Aedes albopictus [2]; 0.33 µg/cm2
  pest or weed control at 0.33 µg/cm2, 0.33 µg/cm2: 8.39%
Aedes albopictus [2]; 0.5 µg/cm2
  pest or weed control at 0.5 µg/cm2, 0.5 µg/cm2: 36.2%
Aedes albopictus [2]; 0.83 µg/cm2
  pest or weed control at 0.83 µg/cm2, 0.83 µg/cm2: 52.9%
Aedes albopictus [2]; 1.7 µg/cm2
  pest or weed control at 1.7 µg/cm2, 1.7 µg/cm2: 95.5%
Aedes albopictus [2]; 8.3 µg/cm2
  pest or weed control at 8.3 µg/cm2, 8.3 µg/cm2: 100%
Aedes albopictus [2]; 16.7 µg/cm2
  pest or weed control at 16.7 µg/cm2, 16.7 µg/cm2: 100%
Aedes albopictus [2]; 83.3 µg/cm2
  pest or weed control at 83.3 µg/cm2, 83.3 µg/cm2: 100%
Aedes albopictus [2]
  100% PE: 1.7 µg/cm2
Aedes albopictus [2]; applied on skin of volunteers, 3 min exposure
  Protection efficacy (dose to obtain complete protection (100%) from bite attempts): 8.3 μg/cm^2

## CCC(C)OC(=O)N1CCCCC1CCO (stereo not shown) [Icaridin, reference compound]
Aedes albopictus [1]; 0.17mg/cm2, 0 min
  Protection time PE%: 100%
Aedes albopictus [1]; 1 h
  pest or weed control at 0.17 mg/cm2, 0.17 mg/cm2: 100%
Aedes albopictus [1]; 2 h
  pest or weed control at 0.17 mg/cm2, 0.17 mg/cm2: 100%
Aedes albopictus [1]; 3 h
  pest or weed control at 0.17 mg/cm2, 0.17 mg/cm2: 99.5%
Aedes albopictus [1]; 4 h
  pest or weed control at 0.17 mg/cm2, 0.17 mg/cm2: 99.5%
Aedes albopictus [1]; 5 h
  pest or weed control at 0.17 mg/cm2, 0.17 mg/cm2: 99.8%
Aedes albopictus [1]; 6 h
  pest or weed control at 0.17 mg/cm2, 0.17 mg/cm2: 98.7%
Aedes albopictus [1]; 7 h
  pest or weed control at 0.17 mg/cm2, 0.17 mg/cm2: 98.7%
Aedes albopictus [1]; 8 h
  pest or weed control at 0.17 mg/cm2, 0.17 mg/cm2: 97.6%
Aedes albopictus [1]; at the dose of 0.17mg/cm2
  Average PT >95% (% coefficient of variation): 480 (2.2) min
Aedes albopictus [1]; at the dose of 0.17mg/cm2, Kaplan–Meier estimate
  Estimated 100% PT (complete protection time, mean±SE): 370 ± 52 min
RAW 264.7; RAW264.7, 82 μg/mL, 6 h
  immunogenicity (nitric oxide release / nitrite production), in words: three-time increase in the nitrite production compared to the control treatment
RAW 264.7; RAW264.7, positive control LPS 1 μg/mL
  production of nitrite as compared to the positive control: 40%
HaCaT cells
  survival of keratocytes: 91%
Aedes albopictus [2]
  pest or weed control at 0.081 µg/cm2, 0.081 µg/cm2: 42.4%
  pest or weed control at 0.17 µg/cm2, 0.17 µg/cm2: 53.7%
  pest or weed control at 0.33 µg/cm2, 0.33 µg/cm2: 61.8%
  pest or weed control at 0.5 µg/cm2, 0.5 µg/cm2: 77.8%
  pest or weed control at 0.83 µg/cm2, 0.83 µg/cm2: 69.3%
  pest or weed control at 1.7 µg/cm2, 1.7 µg/cm2: 99.6%
  pest or weed control at 8.3 µg/cm2, 8.3 µg/cm2: 100%
  pest or weed control at 16.7 µg/cm2, 16.7 µg/cm2: 100%
  pest or weed control at 83.3 µg/cm2, 83.3 µg/cm2: 100%
  100% PE: 8.3 µg/cm2

Reference: publication PMC9896555, “Cyclic Acetals as Novel Long-Lasting Mosquito Repellents” (Journal of Agricultural and Food Chemistry, 2023)
